Source: ChEMBL document CHEMBL5321209, “Design, synthesis of novel benzimidazole derivatives as ENL inhibitors suppressing leukemia cells viability via downregulating the expression of MYC” (Eur J Med Chem, 2023)
Each block holds one compound with its values, some of them ahead of it. The source made the active and inactive calls. The calls are words filed in the database; no cut-off is given here.

Experiments:
Protein ENL [1] = target: T1, Protein ENL (Homo sapiens, UniProt Q03111); test: Inhibition of C-terminal 6xHis-tagged ENL YEATS domain (1 to 148 residues) (unknown origin) expressed in Escherichia coli BL21(DE3) cells using biotin-H3K27ace as substrate incubated for 45 mins by alpha screen assay
T1 sequence (Q03111 whole entry): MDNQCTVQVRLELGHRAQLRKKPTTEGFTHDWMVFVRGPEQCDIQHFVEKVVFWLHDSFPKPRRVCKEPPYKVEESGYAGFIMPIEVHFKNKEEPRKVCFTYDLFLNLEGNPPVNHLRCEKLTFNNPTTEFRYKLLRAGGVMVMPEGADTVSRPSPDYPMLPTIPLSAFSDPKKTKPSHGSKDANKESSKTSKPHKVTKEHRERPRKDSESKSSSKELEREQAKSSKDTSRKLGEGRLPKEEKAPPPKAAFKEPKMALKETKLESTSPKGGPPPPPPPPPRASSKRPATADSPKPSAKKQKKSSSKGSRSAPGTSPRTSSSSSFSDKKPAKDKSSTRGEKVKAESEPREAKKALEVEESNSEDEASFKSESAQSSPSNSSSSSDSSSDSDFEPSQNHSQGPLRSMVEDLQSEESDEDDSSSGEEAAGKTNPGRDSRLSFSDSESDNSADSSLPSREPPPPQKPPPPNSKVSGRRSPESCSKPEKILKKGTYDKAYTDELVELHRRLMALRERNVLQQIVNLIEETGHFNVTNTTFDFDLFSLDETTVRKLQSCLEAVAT

[2] = target: T2, Protein ENL (Homo sapiens) (UniProt Q03111); conditions: dose 333.0 nM, time 45.0 min
T2 sequence (whole entry): T1 sequence (Q03111 whole entry)

[3] = target: T2, Protein ENL (Homo sapiens); conditions: dose 111.0 nM, time 45.0 min
MOLM-13 [4] = test: Antiproliferative activity against human MOLM-13 cells assessed as inhibition of cell growth measured after 72 hrs by Cell Titer-Glo luminescent assay; format: functional, cell-based; conditions: MOLM-13, 72 h
MV4-11 = test: cells; conditions: Homo sapiens, MV4-11, 72 h
Description: Antiproliferative activity against human MV4-11 cells assessed as inhibition of cell growth measured after 72 hrs by Cell Titer-Glo luminescent assay

[5] = Tmax in BALB/c mouse at 30 mg/kg, po measured after 0.5 to 24 hrs by LC-MS/MS assay; format: ADME, organism-based; conditions: in vivo, time 0.5-24 hrs
[6] = Cmax in BALB/c mouse at 30 mg/kg, po measured after 0.5 to 24 hrs by LC-MS/MS assay; format: ADME, organism-based; parameters: dose 30 mg/kg, time 0.5-24 hrs, route po; conditions: in vivo
[7] = Half life in BALB/c mouse at 30 mg/kg, po measured after 0.5 to 24 hrs by LC-MS/MS assay; format: ADME, organism-based; conditions: in vivo, time 0.5-24 hrs
[8] = AUC (0 to t) in BALB/c mouse at 30 mg/kg, po measured after 0.5 to 24 hrs by LC-MS/MS assay; format: ADME, organism-based; parameters: dose 30 mg/kg, time 0.5-24 hrs, route po; conditions: in vivo
[9] = AUC (0 to infinity) in BALB/c mouse at 30 mg/kg, po measured after 0.5 to 24 hrs by LC-MS/MS assay; format: ADME, organism-based; parameters: time lower 0.5 hrs, dose 30 mg/kg, time upper 24 hrs, route po; conditions: in vivo
[10] = MRT (0 to infinity) in BALB/c mouse at 30 mg/kg, po measured after 0.5 to 24 hrs by LC-MS/MS assay; format: ADME, organism-based; conditions: in vivo, time 0.5-24 hrs
Protein ENL [11] = target: T1, Protein ENL; test: Binding affinity to C-terminal 6xHis-tagged ENL YEATS domain (1 to 148 residues) (unknown origin) expressed in Escherichia coli BL21(DE3) cells assessed as dissociation constant by SPR analysis
[12] = target: YEATS domain-containing protein 4 (Homo sapiens) (UniProt O95619); test: Binding affinity recombinant GAS41 YEATS domain (15 to 159 residues) (unknown origin) expressed in Escherichia coli BL21(DE3) cells by SPR assay
Sequence of YEATS domain-containing protein 4 (Homo sapiens) (O95619 whole entry, the tested form may be a part): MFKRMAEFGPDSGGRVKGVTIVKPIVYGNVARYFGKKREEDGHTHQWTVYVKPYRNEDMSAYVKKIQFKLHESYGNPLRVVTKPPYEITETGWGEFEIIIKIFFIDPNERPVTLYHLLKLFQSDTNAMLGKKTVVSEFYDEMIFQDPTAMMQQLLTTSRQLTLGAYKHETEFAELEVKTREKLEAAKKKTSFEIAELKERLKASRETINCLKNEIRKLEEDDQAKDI

[13] = Downregulation of MYC mRNA level in human MOLM-13 cells at 5 uM incubated for 72 hrs by RT-PCR method relative to control; format: functional
[14] = Downregulation of MYC gene expression in human MOLM-13 cells assessed as fold increase at 5 uM incubated for 72 hrs in presence of JQ-1 by RT-PCR method; format: functional
[15] = Downregulation of MYC gene expression in human MOLM-13 cells assessed as decrease in fold change at 5 uM for 72 hrs by RT-PCR method relative to JQ-1; format: functional
[16] = target: YEATS domain-containing protein 4 (Homo sapiens) (UniProt O95619); test: Binding affinity recombinant GAS41 YEATS domain (15 to 159 residues) (unknown origin) assessed as thermal stability
[17] = Cytotoxicity against HUVEC-C incubated for 72 hrs by Cell Titer-Glo luminescent assay; format: toxicity, cell-based; conditions: human
MRC5 = test: Cytotoxicity against human MRC5 cells incubated for 72 hrs by Cell Titer-Glo luminescent assay; format: toxicity, cell-based; conditions: mrc5, 72 h
MOLM-13 [18] = test: Potency index, ratio of SGC-iMLLT IC50 to test compound IC50 for antiproliferative activity against human MOLM-13 cells; format: functional
[19] = target: T2, Protein ENL (Homo sapiens); conditions: dose 50.0 µM
[20] = target: T2, Protein ENL (Homo sapiens); conditions: dose 25.0 µM
[21] = target: T2, Protein ENL (Homo sapiens); conditions: dose 12.5 µM
Description: Binding affinity to C-terminal 6xHis-tagged ENL YEATS domain (1 to 148 residues) (unknown origin) expressed in Escherichia coli BL21(DE3) cells assessed as thermal stability by measuring change in melting temperature at 12.5 uM by SYPRO dye-based thermal shift assay

[22] = target: T2, Protein ENL (Homo sapiens); conditions: dose 6.3 µM
Description: Binding affinity to C-terminal 6xHis-tagged ENL YEATS domain (1 to 148 residues) (unknown origin) expressed in Escherichia coli BL21(DE3) cells assessed as thermal stability by measuring change in melting temperature at 6.3 uM by SYPRO dye-based thermal shift assay

IC50 (Protein ENL [1]): 56.4 nM
inhibition [2]: 99.6%
inhibition [3]: 89%
SMILES: C[C@H]1CCCN1Cc1nc2cc(NC(=O)c3ccc4c(cnn4CCN4CC5OC(C)(C)OC5C4C4COC(C)(C)O4)c3)ccc2[nH]1 (stereo partly specified)

IC50 (Protein ENL [1]): 18.9 nM
inhibition [2]: 100%
inhibition [3]: 98.3%
SMILES: CCn1ncc2cc(C(=O)Nc3ccc4[nH]c(CN5CCC[C@@H]5C)nc4c3)ccc21

IC50 (Protein ENL [1]): 46.4 nM
inhibition [2]: 95.6%
inhibition [3]: 63.2%
SMILES: Cc1cccc2c(=O)n(C)c3ccc(C(=O)Nc4ccc5[nH]c(CN6CCC[C@@H]6C)nc5c4)cc3c12

IC50 (Protein ENL [1]): 17.2 nM
inhibition [2]: 98.4%
inhibition [3]: 84.1%
SMILES: C[C@H]1CCCN1Cc1nc2cc(NC(=O)c3ccc4nn(CCN)cc4c3)ccc2[nH]1

IC50 (Protein ENL [1]): 31.8 nM
inhibition [2]: 100%
inhibition [3]: 99.2%
SMILES: C[C@H]1CCCN1Cc1nc2cc(NC(=O)c3ccc4c5ccccc5c(=O)n(C)c4c3)ccc2[nH]1

IC50 (Protein ENL [1]): 28.2 nM
inhibition [2]: 100%
inhibition [3]: 100%
SMILES: C[C@H]1CCCN1Cc1nc2cc(NC(=O)c3ccc4c(cnn4CCN)c3)ccc2[nH]1

IC50 (Protein ENL [1]): 35.3 nM
inhibition [2]: 100%
inhibition [3]: 98.4%
SMILES: CCCCn1cc2cc(C(=O)Nc3ccc4[nH]c(CN5CCC[C@@H]5C)nc4c3)ccc2n1

IC50 (Protein ENL [1]): 35.4 nM
inhibition [2]: 96.1%
inhibition [3]: 68.4%
SMILES: Cc1ccccc1C(=O)NCCn1ncc2cc(C(=O)Nc3ccc4[nH]c(CN5CCC[C@@H]5C)nc4c3)ccc21

IC50 (MOLM-13 [4]): > 100000 nM
IC50 (Protein ENL [1]): 22 nM
inhibition [2]: 98.5%
inhibition [3]: 79.5%
IC50 (MV4-11): > 100000 nM
SMILES: C[C@H]1CCCN1Cc1nc2cc(NC(=O)N3C(CO)C(O)C(O)C3CO)ccc2[nH]1 (stereo partly specified)

Tmax [5]: 0.5 h
Cmax [6]: 71.8 ng/mL
half-life [7]: 5.2 h
AUC(0-t) [8]: 257 ng·h/mL
AUC(0-inf) [9]: 272 ng·h/mL
MRT inf [10]: 5.5 h
IC50 (MOLM-13 [4]): 8300 nM
IC50 (Protein ENL [1]): 15.4 nM
Kd (Protein ENL [11]): 17 nM
Activity [12]: inactive
Activity [16]: inactive
inhibition [2]: 100%
inhibition [3]: 99.6%
ΔTm [19]: 5.5 °C
ΔTm [20]: 4.3 °C
ΔTm [21]: 3.3 °C
ΔTm [22]: 1.9 °C
IC50 (MV4-11): 4800 nM
SMILES: C[C@H]1CCCN1Cc1nc2cc(NC(=O)c3ccc4c(c3)c3ccccc3c(=O)n4C)ccc2[nH]1
Activity [13]: 50%
fold change (FC) [14]: >5
fold change (FC) [15]: <2.5
Activity [17]: Non-Toxic
Activity (MRC5): Non-Toxic
Ratio IC50 (MOLM-13 [18]): 9

IC50 (Protein ENL [1]): 32.3 nM
inhibition [2]: 99.3%
inhibition [3]: 84.6%
SMILES: C[C@H]1CCCN1Cc1nc2cc(NC(=O)c3ccc4c(cnn4CCN4CC(O)C(O)C4C(O)CO)c3)ccc2[nH]1 (stereo partly specified)

IC50 (Protein ENL [1]): 77 nM
inhibition [2]: 99.6%
inhibition [3]: 86.8%
SMILES: C[C@H]1CCCN1Cc1nc2cc(NC(=O)c3ccc4nn(C)cc4c3)ccc2[nH]1

IC50 (MOLM-13 [4]): 39600 nM
IC50 (Protein ENL [1]): 14.5 nM
inhibition [2]: 99.9%
inhibition [3]: 98.3%
ΔTm [19]: 3.5 °C
ΔTm [20]: 2 °C
ΔTm [21]: 1.3 °C
ΔTm [22]: 0.8 °C
SMILES: C[C@H]1CCCN1Cc1nc2cc(NC(=O)c3ccc4c(cnn4CCN4CCOCC4)c3)ccc2[nH]1
Ratio IC50 (MOLM-13 [18]): 2

IC50 (Protein ENL [1]): 22.1 nM
inhibition [2]: 99.2%
inhibition [3]: 90.8%
SMILES: C[C@H]1CCCN1Cc1nc2cc(NC(=O)c3ccc4c(c3)c3cc(F)ccc3c(=O)n4C)ccc2[nH]1
